Measured values reported in patent US8227511B2, “Substituted chromanol derivatives and their use” (Bayer Intellectual Property GmbH, priority 2006, dated 2012).

Key:
[1] = system: transgenic hCETP mice; experiment: Measurement of the in vivo activity in transgenic hCETP mice; conditions: perorally once a day on 3 days, percentage change compared with the starting value
Description: To determine the oral action on lipoproteins and triglycerides, test substance is administered perorally to transgenic mice [Dinchuk et al., BBA, 1295-1301 (1995)] using a stomach tube once a day on 3 days. For this purpose, the substances are dissolved in 10% Solutol HS 15/10% ethanol/80% of a 0.9% strength sodium chloride solution; the administration volume is generally 10 ml per kg of body weight. Before the start of the experiment, blood is withdrawn from the mice retro-orbitally in order to determine cholesterol and triglycerides in the serum. The serum is obtained as described above for hamsters by incubation at room temperature for 30 min and subsequent centrifugation at 6000 g. On the day after the last administration of substance, blood is again withdrawn from the mice in order to determine lipoproteins and triglycerides. The changes in the parameters measured are expressed as the percentage change compared with the starting value.

[2] = molecular target: T1, CETP (Homo sapiens, UniProt P11597); experiment: CETP-SPA test; assay type: biochemical; conditions: transfer of 3H-cholesterol ester from human HDL to biotinylated LDL; 37° C. for 18 h
T1 construct: CETP is obtained in partially purified form from human plasma by differential centrifugation and column chromatography and used for the test; from tissue; host or cells: human plasma
T1 sequence (P11597 18-493): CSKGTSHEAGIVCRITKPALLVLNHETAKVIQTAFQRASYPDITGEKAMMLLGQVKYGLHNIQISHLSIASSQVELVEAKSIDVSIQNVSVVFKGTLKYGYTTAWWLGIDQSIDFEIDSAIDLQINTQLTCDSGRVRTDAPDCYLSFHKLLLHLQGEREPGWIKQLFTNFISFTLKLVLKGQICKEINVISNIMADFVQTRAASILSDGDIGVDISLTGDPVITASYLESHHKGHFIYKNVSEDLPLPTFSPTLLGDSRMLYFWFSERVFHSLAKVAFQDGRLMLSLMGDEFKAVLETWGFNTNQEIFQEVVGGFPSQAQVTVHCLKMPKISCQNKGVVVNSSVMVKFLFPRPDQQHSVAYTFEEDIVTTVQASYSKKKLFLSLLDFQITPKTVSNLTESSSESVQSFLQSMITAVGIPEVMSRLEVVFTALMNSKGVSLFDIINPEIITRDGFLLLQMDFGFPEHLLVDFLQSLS
Description: (§1) CETP is obtained in partially purified form from human plasma by differential centrifugation and column chromatography and used for the test. To this end, human plasma is adjusted to a density of 1.21 g per ml using NaBr and centrifuged at 4° C. at 50 000 rpm for 18 h. The bottom fraction (d>1.21 g/ml) is applied to a Phenyl-Sepharose 26/10 HP fast flow-column (Pharmacia), washed with PBS buffer and then eluted with distilled water. 10 parts of PBS buffer and 1% (w/v) BSA are added to the eluate. The CETP-active fractions are pooled.
For testing of the CETP activity, the transfer of ^3H-cholesterol ester from human HD lipoproteins to biotinylated LD lipoproteins is measured. The reaction is ended by addition of streptavidin-SPA® beads (Amersham) and the transferred radioactivity is determined directly in a liquid scintillation counter.
In the test batch, 10 μl of HDL-3H-cholesterol ester (about 50 000 cpm) are incubated at 37° C. for 18 h with 10 μl of biotin-LDL (Amersham) in 50 mM Hepes/0.15 M NaCl/0.1% bovine serum albumin (RSA)/0.05% NaN3 pH 7.4 containing 10 μl of CETP (1 mg/ml) and 3 μl of a solution of the substance to be tested (dissolved in 10% DMSO/1% RSA). 200 μl of the SPA-streptavidin bead solution (TRKQ 7005) are then added, incubated further with shaking for 1 h and then measured in a scintillation counter. Corresponding incubations with 10 μl of buffer, 10 μl of CETP at 4° C. and 10 μl of CETP at 37° C. serve as controls.
The activity transferred in the control batches with CETP at 37° C. is rated as 100% transfer. The substance concentration at which this transfer is reduced to half is specified as the IC50 value.

[3] = molecular target: T1, CETP; experiment: CETP fluorescence test with enriched CETP; assay type: biochemical; conditions: enriched CETP fraction from human plasma; transfer of fluorescent cholesterol ester between liposomes; 37° C. for 4 h
Description: as §1
Measurement of the CETP-catalyzed transfer of a fluorescent cholesterol ester between liposomes [modified according to the procedure of Bisgaier et al., J. Lipid Res. 34, 1625 (1993)]:
For the production of the donor liposomes, 1 mg of cholesteryl 4,4-difluoro-5,7-dimethyl-4-bora-3a,4a-diaza-s-indacene-3-dodecanoate (cholesteryl BODIPY® FL C12, Molecular Probes) is dissolved in 2 ml of chloroform with 5.35 mg of triolein and 6.67 mg of phosphatidylcholine. The solvent is removed at medium temperature in a SpeedVac and the residue is dried under high vacuum for 1 h. The residue is then dissolved in 600 μl of dioxane with gentle warming in an ultrasonic bath and this solution is added very slowly with ultrasonication to 63 ml of 50 mM Tris/HCl, 150 mM NaCl, 2 mM EDTA buffer pH 7.3 at room temperature. The suspension is then ultrasonicated under an N2 atmosphere for 30 minutes in the Branson ultrasonic bath at about 50 watts, the temperature being kept at about 20° C.
The acceptor liposomes are obtained analogously from 86 mg of cholesteryl oleate, 20 mg of triolein and 100 mg of phosphatidylcholine dissolved in 1.2 ml of dioxane and 114 ml of the above buffer by ultrasonication at 50 watts (20° C.) for 30 minutes.
For testing, a test mix consisting of 1 part of above buffer, 1 part of donor liposomes and 2 parts of acceptor liposomes is used.
50 μl of test mix are treated with 48 μl of enriched CETP fraction (1-3 μg), obtained from human plasma by means of hydrophobic chromatography, and 2 μl of a solution of the substance to be investigated in DMSO and incubated at 37° C. for 4 h.
The change in the fluorescence at 485/535 nm is a measure of the CE transfer; the inhibition of the transfer in comparison to the control batch without substance is determined.

SMILES	% increase of HDL after 3 d (dose: 3 × 3 mg/kg) [1] [%]	IC50 [2] [nM]	IC50 [3] [nM]
CC(C)c1cc2c(c(-c3ccc(F)cc3)c1[C@@H](F)c1ccc(C(F)(F)F)cc1)[C@@H](O)CC1(CCC1)O2 [Example 30, (4S)-5-(4-Fluorophenyl)-6-{(S)-fluoro[4-(trifluoromethyl)phenyl]methyl}-7-isopropyl-3,4-dihydro-spiro[chromen-2,1′-cyclobutan]-4-ol]	83	12	18
CC(C)c1cc2c(c(-c3ccc(F)cc3)c1[C@@H](F)c1ccc(C(F)(F)F)cc1)[C@@H](O)CC(C)(C)O2 [Example 7, (4S)-5-(4-Fluorophenyl)-6-{(S)-fluoro[4-(trifluoromethyl)phenyl]methyl}-7-isopropyl-2,2-dimethylchroman-4-ol]	67	20	32
CC(C)c1cc2c(c(-c3ccc(F)cc3)c1Cc1ccc(C(C)(C)C)cc1)[C@@H](O)CC1(CCC1)O2 [Example 36, (4S)-6-(4-tert-Butylbenzyl)-5-(4-fluorophenyl)-7-isopropyl-3,4-dihydrospiro[chromen-2,1′-cyclo-butan]-4-ol]	40	6	28
CC(C)c1cc2c(c(C3=CCCC3)c1[C@@H](O)c1ccc(C(F)(F)F)cc1)[C@@H](O)CC(C)(C)O2 [Example 22, (4S)-5-Cyclopent-1-en-1-yl-6-{(S)-hydroxy[4-(trifluoromethyl)phenyl]methyl}-7-isopropyl-2,2-di-methylchroman-4-ol]		57	51
CC(C)c1cc2c(c(-c3ccc(F)cc3)c1C(=O)c1ccc(C(F)(F)F)cc1)[C@@H](O)CC(C)(C)O2 [Example 4, [(4S)-5-(4-Fluorophenyl)-4-hydroxy-7-isopropyl-2,2-dimethyl-3,4-dihydro-2H-chromen-6-yl][4-(trifluoromethyl)phenyl]methanone]		62	90
CC(C)c1cc2c(c(-c3ccc(F)cc3)c1C(=O)c1ccc(C(C)(C)C)cc1)[C@@H](O)CC1(CCC1)O2 [Example 33, (4-tert-Butylphenyl)[(4S)-5-(4-fluorophenyl)-4-hydroxy-7-isopropyl-3,4-dihydrospiro[chromen-2,1′-cyclobutan]-6-yl]methanone]		16	59
O[C@@H](c1ccc(C(F)(F)F)cc1)c1c(C2CCCC2)cc2c(c1-c1ccc(F)cc1)[C@@H](O)CC1(CCC1)O2 [Example 45]		21	26
CC(C)c1cc2c(c(-c3ccc(F)cc3)c1[C@@H](O)c1ccc(C(F)(F)F)cc1)[C@@H](O)CC1(CCC1)O2 [Example 28, (4S)-5-(4-Fluorophenyl)-6-{(S)-hydroxy[4-(trifluoromethyl)phenyl]methyl}-7-isopropyl-3,4-dihydrospiro[chromen-2,1′-cyclobutan]-4-ol]	25	22	77
CC(C)c1cc2c(c(C3CCCC3)c1[C@@H](F)c1ccc(C(F)(F)F)cc1)[C@@H](O)CC1(CCC1)O2 [Example 42, (4S)-5-Cyclopentyl-6-{(S)-fluoro[4-(trifluoromethyl)phenyl]methyl}-7-isopropyl-3,4-dihydrospiro-[chroman-2,1′-cyclobutan]-4-ol]	81	21	26
CC(C)c1cc2c(c(-c3ccc(F)cc3)c1C(=O)c1ccc(OC(F)(F)F)cc1)[C@@H](O)CC1(CCC1)O2 [Example 37, [(4S)-5-(4-Fluorophenyl)-4-hydroxy-7-isopropyl-3,4-dihydrospiro[chromen-2,1′-cyclobutan]-6-yl]-[4-(trifluoromethoxy)phenyl]methanone]		30	36
CC(C)c1cc2c(c(-c3ccc(F)cc3)c1[C@H](F)c1ccc(C(F)(F)F)cc1)[C@@H](O)CC1(CCC1)O2 [Example 31, (4S)-5-(4-fluorophenyl)-6-{(R)-fluoro[4-(trifluoromethyl)phenyl]methyl}-7-isopropyl-3,4-dihydro-spiro[chromen-2,1′-cyclobutan]-4-ol]		20	53
CC(C)c1cc2c(c(-c3ccc(F)cc3)c1[C@@H](O)c1ccc(OC(F)(F)F)cc1)[C@@H](O)CC(C)(C)O2 [Example 11, (4S)-5-(4-Fluorophenyl)-6-{(S)-hydroxy[4-(trifluoromethoxy)phenyl]methyl}-7-isopropyl-2,2-di-methylchroman-4-ol]		51	63
CC(C)c1cc2c(c(-c3ccc(F)cc3)c1C(=O)c1ccc(C(F)(F)F)cc1)[C@@H](O)CC1(CCC1)O2 [Example 27, [(4S)-5-(4-Fluorophenyl)-4-hydroxy-7-isopropyl-3,4-dihydrospiro[chromen-2,1′-cyclobutan]-6-yl]-[4-(trifluoromethyl)phenyl]methanone]		18	35
CC(C)c1cc2c(c(-c3ccc(F)cc3)c1Cc1ccc(C(F)(F)F)cc1)[C@@H](O)CC(C)(C)O2 [Example 9, (4S)-5-(4-Fluorophenyl)-7-isopropyl-2,2-dimethyl-6-[4-(trifluoromethyl)benzyl]chroman-4-ol]		33	90
CC(C)c1cc2c(c(-c3ccc(F)cc3)c1[C@@H](O)c1ccc(C(F)(F)F)cc1)[C@@H](O)CC1(CC1)O2 [Example 55]		4	27
CC(C)c1cc2c(c(-c3ccc(F)cc3)c1[C@H](F)c1ccc(C(F)(F)F)cc1)[C@@H](O)CC1(CC1)O2 [Example 58]		68	300
CC(C)c1cc2c(c(-c3ccc(F)cc3)c1[C@@H](O)c1ccc(C(F)(F)F)cc1)[C@@H](O)CC(C)(C)O2 [Example 5, (4S)-5-(4-Fluorophenyl)-6-{(S)-hydroxy[4-(trifluoromethyl)phenyl]methyl}-7-isopropyl-2,2-di-methylchroman-4-ol]		29	35
O=C(c1ccc(OC(F)(F)F)cc1)c1c(C2CCCC2)cc2c(c1-c1ccc(F)cc1)[C@@H](O)CC1(CCC1)O2 [Example 51]		100	42
